Measurements: the NIST ThermoML archive (doi:10.1016/j.jct.2015.09.002)

Experiment: xn = mol fraction of the nth substance listed
Details: 93.2 kPa, Liquid, Vibrating tube method

CCCNCCC [dipropylamine] + CC#N
mass density [kg/m3]
Details | 293.15 K | 298.15 K | 303.15 K | 308.15 K
x2 = 0 | 738.18 | 733.64 | 729.07 | 724.48
x2 = 0.0106 | 738.6 | 734.04 | 729.47 | 724.87
x2 = 0.0215 | 738.86 | 734.31 | 729.71 | 725.09
x2 = 0.0323 | 739.1 | 734.53 | 729.92 | 725.29
x2 = 0.0406 | 739.28 | 734.72 | 730.09 | 725.48
x2 = 0.0507 | 739.51 | 734.94 | 730.32 | 725.71
x2 = 0.0605 | 739.75 | 735.16 | 730.53 | 725.91
x2 = 0.0684 | 739.93 | 735.34 | 730.7 | 726.08
x2 = 0.0801 | 740.21 | 735.61 | 730.96 | 726.32
x2 = 0.0926 | 740.51 | 735.91 | 731.26 | 726.61
x2 = 0.101 | 740.71 | 736.11 | 731.45 | 726.79
x2 = 0.1493 | 741.88 | 737.23 | 732.56 | 727.89
x2 = 0.2009 | 743.16 | 738.47 | 733.79 | 729.06
x2 = 0.2547 | 744.47 | 739.78 | 735.06 | 730.34
x2 = 0.3001 | 745.65 | 740.94 | 736.2 | 731.45
x2 = 0.3514 | 747.06 | 742.32 | 737.55 | 732.77
x2 = 0.3995 | 748.45 | 743.68 | 738.88 | 734.07
x2 = 0.4556 | 750.19 | 745.39 | 740.57 | 735.71
x2 = 0.5008 | 751.71 | 746.88 | 742.02 | 737.15
x2 = 0.551 | 753.52 | 748.66 | 743.77 | 738.86
x2 = 0.6037 | 755.61 | 750.71 | 745.77 | 740.81
x2 = 0.6481 | 757.56 | 752.63 | 747.66 | 742.67
x2 = 0.6992 | 760.02 | 755.04 | 750.02 | 744.98
x2 = 0.7495 | 762.68 | 757.65 | 752.58 | 747.48
x2 = 0.7997 | 765.7 | 760.61 | 755.49 | 750.33
x2 = 0.8496 | 769.02 | 763.85 | 758.66 | 753.43
x2 = 0.9002 | 772.87 | 767.63 | 762.35 | 757.05
x2 = 0.9092 | 773.6 | 768.35 | 763.04 | 757.76
x2 = 0.9194 | 774.47 | 769.22 | 763.9 | 758.59
x2 = 0.9298 | 775.37 | 770.09 | 764.79 | 759.45
x2 = 0.9492 | 777.14 | 771.83 | 766.49 | 761.13
x2 = 0.9697 | 779.11 | 773.75 | 768.36 | 762.97
x2 = 0.9892 | 781.03 | 775.63 | 770.22 | 764.78

CCCN [propan-1-amine] + CC#N
mass density [kg/m3]
Details | 293.15 K | 298.15 K | 303.15 K | 308.15 K
x2 = 0 | 716.48 | 711.21 | 705.88 | 700.62
x2 = 0.0105 | 717.02 | 711.79 | 706.42 | 701.16
x2 = 0.0199 | 717.49 | 712.26 | 706.89 | 701.63
x2 = 0.0296 | 717.97 | 712.74 | 707.37 | 702.11
x2 = 0.0409 | 718.55 | 713.3 | 708.3 | 702.66
x2 = 0.0512 | 719.01 | 713.79 | 708.42 | 703.16
x2 = 0.061 | 719.48 | 714.26 | 708.9 | 703.65
x2 = 0.0707 | 719.96 | 714.7 | 709.38 | 704.14
x2 = 0.0809 | 720.48 | 715.23 | 710.24 | 704.64
x2 = 0.0895 | 720.87 | 715.66 | 710.31 | 705.06
x2 = 0.0993 | 721.35 | 716.14 | 710.79 | 705.55
x2 = 0.1493 | 723.85 | 718.65 | 713.34 | 708.1
x2 = 0.2006 | 726.46 | 721.27 | 715.97 | 710.75
x2 = 0.2499 | 729.08 | 723.91 | 718.64 | 713.3
x2 = 0.2998 | 731.77 | 726.59 | 721.31 | 715.96
x2 = 0.3507 | 734.55 | 729.34 | 724.05 | 718.82
x2 = 0.3993 | 737.38 | 732.18 | 726.9 | 721.58
x2 = 0.4479 | 740.27 | 735.05 | 729.77 | 724.44
x2 = 0.4988 | 743.34 | 738.1 | 732.79 | 727.56
x2 = 0.5486 | 746.55 | 741.33 | 736.02 | 730.68
x2 = 0.6017 | 750.02 | 744.77 | 739.46 | 734.16
x2 = 0.6499 | 753.32 | 748.08 | 742.76 | 737.45
x2 = 0.6998 | 756.86 | 751.61 | 746.49 | 740.98
x2 = 0.7501 | 760.68 | 755.4 | 750.19 | 744.7
x2 = 0.8001 | 764.57 | 759.28 | 754.03 | 748.54
x2 = 0.8487 | 768.54 | 763.25 | 757.85 | 752.47
x2 = 0.8995 | 772.9 | 767.55 | 762.15 | 756.72
x2 = 0.9089 | 773.68 | 768.32 | 762.93 | 757.54
x2 = 0.9201 | 774.65 | 769.28 | 763.89 | 758.5
x2 = 0.928 | 775.36 | 770 | 764.6 | 759.19
x2 = 0.9393 | 776.43 | 771.07 | 765.67 | 760.24
x2 = 0.9491 | 777.27 | 771.89 | 766.51 | 761.05
x2 = 0.9594 | 778.22 | 772.82 | 767.45 | 761.98
x2 = 0.9678 | 778.99 | 773.6 | 768.21 | 762.74
x2 = 0.9795 | 780.09 | 774.69 | 769.3 | 763.82
x2 = 0.9893 | 781.01 | 775.61 | 770.21 | 764.73

CCN(CC)CC [triethylamine] + CC#N
mass density [kg/m3]
Details | 293.15 K | 298.15 K | 303.15 K | 308.15 K
x2 = 0 | 727.7 | 723.02 | 718.36 | 713.65
x2 = 0.0113 | 728.13 | 723.44 | 718.77 | 714.06
x2 = 0.0212 | 728.41 | 723.73 | 719.05 | 714.32
x2 = 0.03 | 728.67 | 723.97 | 719.29 | 714.57
x2 = 0.0406 | 728.98 | 724.28 | 719.6 | 714.86
x2 = 0.0502 | 729.23 | 724.53 | 719.84 | 715.1
x2 = 0.0591 | 729.48 | 724.77 | 720.06 | 715.32
x2 = 0.0701 | 729.78 | 725.07 | 720.35 | 715.6
x2 = 0.0842 | 730.18 | 725.45 | 720.73 | 715.97
x2 = 0.0944 | 730.47 | 725.73 | 721.02 | 716.24
x2 = 0.1013 | 730.66 | 725.97 | 721.24 | 716.48
x2 = 0.1519 | 732.16 | 727.46 | 722.63 | 717.85
x2 = 0.1991 | 733.6 | 728.85 | 723.99 | 719.16
x2 = 0.2501 | 735.21 | 730.39 | 725.53 | 720.64
x2 = 0.3018 | 736.94 | 732.07 | 727.17 | 722.25
x2 = 0.3505 | 738.65 | 733.76 | 728.84 | 723.88
x2 = 0.4003 | 740.52 | 735.58 | 730.62 | 725.63
x2 = 0.4482 | 742.43 | 737.48 | 732.49 | 727.48
x2 = 0.5002 | 744.69 | 739.7 | 734.68 | 729.63
x2 = 0.5511 | 747.1 | 742.08 | 737.03 | 731.95
x2 = 0.5995 | 749.58 | 744.55 | 739.43 | 734.36
x2 = 0.6499 | 752.4 | 747.32 | 742.18 | 737.06
x2 = 0.702 | 755.6 | 750.5 | 745.3 | 740.16
x2 = 0.7498 | 758.83 | 753.71 | 748.42 | 743.28
x2 = 0.7998 | 762.53 | 757.35 | 752.07 | 746.81
x2 = 0.85 | 766.68 | 761.45 | 756.13 | 750.82
x2 = 0.8994 | 771.19 | 765.92 | 760.59 | 755.2
x2 = 0.9095 | 772.21 | 766.93 | 761.6 | 756.23
x2 = 0.9199 | 773.25 | 767.97 | 762.63 | 757.25
x2 = 0.9293 | 774.23 | 768.93 | 763.58 | 758.19
x2 = 0.9402 | 775.35 | 770.05 | 764.69 | 759.29
x2 = 0.9495 | 776.36 | 771.03 | 765.7 | 760.33
x2 = 0.9591 | 777.43 | 772.08 | 766.69 | 761.27
x2 = 0.9685 | 778.48 | 773.13 | 767.72 | 762.31
x2 = 0.99 | 780.9 | 775.52 | 770.1 | 764.64
